Assays:
[1] = tested on: hGYS1 enzyme / glycogen synthesis in HeLa cells; test: GYS1 cell based assay (glycogen synthesis, Glucose-glo); parameters: species or system human; details: Homo sapiens, HeLa, 24 h, 24 h incubation, 20 mM glucose, geometric mean of at least 2 runs
How it was run: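 HeLa cells starved 24 h in medium containing only 1× Glutamax were plated onto compound in medium with 20 mM glucose (1% DMSO final) for 24 h, 37 °C, 5% CO2. Acid lysates were Tris-quenched, glucoamylase-digested (pH 5.3, 1 h, 37 °C) and read by Glucose-glo luminescence. IC50 came from Hill fits, as geometric mean of ≥2 runs.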

[2] = target: hGYS2 enzyme (recombinant hGYS2/GN1 protein) (Homo sapiens (Human), UniProt P54840); test: GYS2 coupled enzyme assay (PK/LDH); format: biochemical; details: geometric mean of at least 2 assay runs on separate days, read-out: Avg_IC50
How it was run: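 Continuous PK/LDH-coupled readout of NADH loss at 340 nm over 10 min, with 200 nM hGYS2/GN1 and 2 mM each of UDP-glucose, glucose-6-phosphate and PEP, in 50 mM Tris pH 7.5 with 0.2% glycogen and 2.5% DMSO. Slopes were normalized to controls and IC50s fit to a Hill curve from duplicates.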

[3] = target: hGYS1 enzyme (recombinant hGYS1/GN1 protein) (Homo sapiens (Human), UniProt P13807); test: GYS1 coupled enzyme assay (PK/LDH); format: biochemical; details: hGYS1/GN1 50 nM, UDP-Glucose 0.8 mM, G6P 1 mM; geometric mean of at least 2 runs
hGYS1 enzyme (recombinant hGYS1/GN1 protein), sequence (P13807 whole entry): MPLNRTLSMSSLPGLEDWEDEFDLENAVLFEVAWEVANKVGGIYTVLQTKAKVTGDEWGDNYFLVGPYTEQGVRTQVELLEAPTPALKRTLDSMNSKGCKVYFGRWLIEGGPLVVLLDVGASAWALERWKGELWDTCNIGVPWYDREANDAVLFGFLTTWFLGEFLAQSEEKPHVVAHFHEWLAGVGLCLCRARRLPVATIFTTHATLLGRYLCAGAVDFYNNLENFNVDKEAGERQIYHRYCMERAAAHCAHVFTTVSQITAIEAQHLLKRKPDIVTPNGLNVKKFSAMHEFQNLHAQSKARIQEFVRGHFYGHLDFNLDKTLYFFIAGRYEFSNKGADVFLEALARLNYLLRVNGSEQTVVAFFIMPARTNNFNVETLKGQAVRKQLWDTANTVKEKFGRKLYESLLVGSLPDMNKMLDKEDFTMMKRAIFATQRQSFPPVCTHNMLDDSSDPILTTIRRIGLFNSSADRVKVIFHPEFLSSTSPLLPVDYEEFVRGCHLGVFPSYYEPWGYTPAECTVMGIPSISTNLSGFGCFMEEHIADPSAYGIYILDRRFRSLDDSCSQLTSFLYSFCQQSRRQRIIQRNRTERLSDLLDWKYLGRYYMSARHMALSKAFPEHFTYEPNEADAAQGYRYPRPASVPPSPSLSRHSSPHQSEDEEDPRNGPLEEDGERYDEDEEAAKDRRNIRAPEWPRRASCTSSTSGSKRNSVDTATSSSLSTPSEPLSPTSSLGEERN
hGYS1 enzyme (recombinant hGYS1/GN1 protein), sequence (P46976 whole entry partner): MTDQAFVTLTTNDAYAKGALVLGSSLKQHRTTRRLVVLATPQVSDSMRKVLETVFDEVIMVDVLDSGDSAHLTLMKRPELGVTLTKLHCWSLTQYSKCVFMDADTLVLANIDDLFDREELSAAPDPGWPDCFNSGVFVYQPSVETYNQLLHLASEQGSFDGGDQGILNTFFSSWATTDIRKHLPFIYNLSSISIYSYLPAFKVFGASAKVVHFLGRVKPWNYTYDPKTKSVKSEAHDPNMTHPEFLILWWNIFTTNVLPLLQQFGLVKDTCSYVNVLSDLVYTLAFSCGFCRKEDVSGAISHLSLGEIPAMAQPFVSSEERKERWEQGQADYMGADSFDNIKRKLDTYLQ

hGYS2 enzyme (recombinant hGYS2/GN1 protein), sequence (P54840 whole entry): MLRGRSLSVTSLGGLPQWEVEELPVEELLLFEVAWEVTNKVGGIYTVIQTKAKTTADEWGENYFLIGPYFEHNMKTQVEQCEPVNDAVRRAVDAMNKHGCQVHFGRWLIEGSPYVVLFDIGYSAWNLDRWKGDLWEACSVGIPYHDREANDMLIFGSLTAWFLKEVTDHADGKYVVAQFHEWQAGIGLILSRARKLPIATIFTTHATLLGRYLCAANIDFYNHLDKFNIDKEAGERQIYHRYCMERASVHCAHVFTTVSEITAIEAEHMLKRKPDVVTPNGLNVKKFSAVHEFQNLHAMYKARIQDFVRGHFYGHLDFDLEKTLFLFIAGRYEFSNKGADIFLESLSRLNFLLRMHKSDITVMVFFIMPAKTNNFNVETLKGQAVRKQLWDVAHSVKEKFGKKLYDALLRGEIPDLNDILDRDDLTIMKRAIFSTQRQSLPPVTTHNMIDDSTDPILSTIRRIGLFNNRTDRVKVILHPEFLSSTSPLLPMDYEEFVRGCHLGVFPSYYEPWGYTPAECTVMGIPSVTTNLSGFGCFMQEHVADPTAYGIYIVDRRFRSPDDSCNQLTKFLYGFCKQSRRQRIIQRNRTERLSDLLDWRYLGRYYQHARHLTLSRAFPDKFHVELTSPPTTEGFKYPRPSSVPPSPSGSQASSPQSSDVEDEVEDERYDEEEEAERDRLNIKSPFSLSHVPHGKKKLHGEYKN
hGYS2 enzyme (recombinant hGYS2/GN1 protein), sequence (P46976 whole entry partner): as the sequence (P46976 whole entry partner) above

| IC50 [1] [nM] | IC50 [2] [nM] | IC50 [3] [nM] | Structure (SMILES) |
| --- | --- | --- | --- |
| 430 | > 100000 | 30 | CC1(c2ccc([C@@H](NC(=O)[C@@H]3C[C@@H](F)CN3C(=O)Cc3cnn[nH]3)c3ccccc3)cc2F)CCC1 [Compound 681, (2S,4R)-4-fluoro-N-[(S)-[3-fluoro-4-(1-methylcyclobutyl)phenyl](phenyl)methyl]-1-[2-(1H-1,2,3-triazol-5-yl)acetyl]pyrrolidine-2-carboxamide] |
| 2710 | > 100000 | 204 | CC(C)(C)c1ccc([C@@H](NC(=O)[C@@H]2C[C@@H](F)CN2C(=O)Cc2cnn[nH]2)c2ccccc2)cc1F [Compound 685, (2S,4R)-N-[(S)-(4-tert-butyl-3-fluorophenyl)(phenyl)methyl]-4-fluoro-1-[2-(1H-1,2,3-triazol-5-yl)acetyl]pyrrolidine-2-carboxamide] |
| 640 | > 100000 | 13 | CC(C)c1ccc([C@@H](NC(=O)[C@@H]2C[C@@H](F)CN2C(=O)Cc2cnn[nH]2)c2cccc(-c3ccn[nH]3)c2)nc1F [Compound 686, (2S,4R)-1-(2-(1H-1,2,3-triazol-5-yl)acetyl)-N—((S)-(3-(1H-pyrazol-5-yl)phenyl)(6-fluoro-5-isopropylpyridin-2-yl)methyl)-4-fluoropyrrolidine-2-carboxamide] |
| 1620 | > 100000 | 66 | O=C(N[C@@H](c1ccccc1)c1ccc(C2CC2)c(F)n1)[C@@H]1C[C@@H](F)CN1C(=O)Cc1ccc[nH]c1=O [Compound 731, (2S,4R)-N-[(S)-(5-cyclopropyl-6-fluoropyridin-2-yl)(phenyl)methyl]-4-fluoro-1-[2-(2-oxo-1,2-dihydropyridin-3-yl)acetyl]pyrrolidine-2-carboxamide] |
| 1370 | > 100000 | 27 | Cc1cc(CC(=O)N2C[C@H](F)C[C@H]2C(=O)N[C@@H](c2ccccc2)c2ccc(C3CC3)c(F)n2)c[nH]c1=O [Compound 732, (2S,4R)-N-[(S)-(5-cyclopropyl-6-fluoropyridin-2-yl)(phenyl)methyl]-4-fluoro-1-[2-(5-methyl-6-oxo-1,6-dihydropyridin-3-yl)acetyl]pyrrolidine-2-carboxamide] |

Continued, molecule first:

| Structure (SMILES) | IC50 [1] [nM] | IC50 [2] [nM] | IC50 [3] [nM] |
| --- | --- | --- | --- |
| CC(C)c1ccc([C@@H](NC(=O)[C@@H]2C[C@@H](F)CN2C(=O)Cc2nn(C)c(=O)n2C)c2ccccc2)nc1 [Compound 710, (2S,4R)-1-[2-(1,4-dimethyl-5-oxo-4,5-dihydro-1H-1,2,4-triazol-3-yl)acetyl]-4-fluoro-N-[(S)-phenyl[5-(propan-2-yl)pyridin-2-yl]methyl]pyrrolidine-2-carboxamide] | 2340 | > 100000 | 146 |
| CC(C)c1ccc([C@@H](NC(=O)[C@@H]2C[C@@H](F)CN2C(=O)Cn2cc(N3CCC3)nn2)c2ccccc2)nc1 [Compound 711, (2S,4R)-1-{2-[4-(azetidin-1-yl)-1H-1,2,3-triazol-1-yl]acetyl}-4-fluoro-N-[(S)-phenyl[5-(propan-2-yl)pyridin-2-yl]methyl]pyrrolidine-2-carboxamide] | 630 | > 100000 | 30 |
| Cn1c(CC(=O)N2C[C@H](F)C[C@H]2C(=O)N[C@@H](c2ccccc2)c2ccc(C3CC3)c(F)n2)noc1=O [Compound 719, (2S,4R)-N-[(S)-(5-cyclopropyl-6-fluoropyridin-2-yl)(phenyl)methyl]-4-fluoro-1-[2-(4-methyl-5-oxo-4,5-dihydro-1,2,4-oxadiazol-3-yl)acetyl]pyrrolidine-2-carboxamide] | 2220 | > 100000 | 254 |
| Cn1nc(CC(=O)N2C[C@H](F)C[C@H]2C(=O)N[C@@H](c2ccccc2)c2ccc(C3CC3)c(F)n2)n(C)c1=O [Compound 722, (2S,4R)-N-[(S)-(5-cyclopropyl-6-fluoropyridin-2-yl)(phenyl)methyl]-1-[2-(1,4-dimethyl-5-oxo-4,5-dihydro-1H-1,2,4-triazol-3-yl)acetyl]-4-fluoropyrrolidine-2-carboxamide] | 1450 | > 100000 | 85 |
| O=C(N[C@@H](c1ccccc1)c1ccc(C2CC2)c(F)n1)[C@@H]1C[C@@H](F)CN1C(=O)Cn1cccn1 [Compound 723, (2S,4R)-N-[(S)-(5-cyclopropyl-6-fluoropyridin-2-yl)(phenyl)methyl]-4-fluoro-1-[2-(1H-pyrazol-1-yl)acetyl]pyrrolidine-2-carboxamide] | 720 | > 100000 | 46 |
| Cc1ccnn1CC(=O)N1C[C@H](F)C[C@H]1C(=O)N[C@@H](c1ccccc1)c1ccc(C2CC2)c(F)n1 [Compound 724, (2S,4R)-N-[(S)-(5-cyclopropyl-6-fluoropyridin-2-yl)(phenyl)methyl]-4-fluoro-1-[2-(5-methyl-1H-pyrazol-1-yl)acetyl]pyrrolidine-2-carboxamide] | 630 | > 100000 | 34 |
| O=C(N[C@@H](c1ccccc1)c1ccc(C2CC2)c(F)n1)[C@@H]1C[C@@H](F)CN1C(=O)Cn1nccc1C(F)F [Compound 725, (2S,4R)-N-[(S)-(5-cyclopropyl-6-fluoropyridin-2-yl)(phenyl)methyl]-1-{2-[5-(difluoromethyl)-1H-pyrazol-1-yl]acetyl}-4-fluoropyrrolidine-2-carboxamide] | 310 | > 100000 | 15 |
| O=C(N[C@@H](c1ccccc1)c1ccc(C2CC2)c(F)n1)[C@@H]1C[C@@H](F)CN1C(=O)Cn1cc(N2CCC2)nn1 [Compound 726, (2S,4R)-1-{2-[4-(azetidin-1-yl)-1H-1,2,3-triazol-1-yl]acetyl}-N-[(S)-(5-cyclopropyl-6-fluoropyridin-2-yl)(phenyl)methyl]-4-fluoropyrrolidine-2-carboxamide] | 540 | > 100000 | 30 |
| O=C(N[C@@H](c1ccccc1)c1ccc(C2CC2)c(F)n1)[C@@H]1C[C@@H](F)CN1C(=O)Cn1ccc(=O)[nH]c1=O [Compound 727, (2S,4R)-N-[(S)-(5-cyclopropyl-6-fluoropyridin-2-yl)(phenyl)methyl]-1-[2-(2,4-dioxo-1,2,3,4-tetrahydropyrimidin-1-yl)acetyl]-4-fluoropyrrolidine-2-carboxamide] | 910 | > 100000 | 17 |
| O=C(N[C@@H](c1ccccc1)c1ccc(C2CC2)c(F)n1)[C@@H]1C[C@@H](F)CN1C(=O)Cn1cc(C(F)(F)F)cn1 [Compound 728, (2S,4R)-N-[(S)-(5-cyclopropyl-6-fluoropyridin-2-yl)(phenyl)methyl]-4-fluoro-1-{2-[4-(trifluoromethyl)-1H-pyrazol-1-yl]acetyl}pyrrolidine-2-carboxamide] | 790 | > 100000 | 36 |
| O=C(N[C@@H](c1ccccc1)c1ccc(C2CC2)c(F)n1)[C@@H]1C[C@@H](F)CN1C(=O)Cn1ccc(C(F)F)n1 [Compound 729, (2S,4R)-N-[(S)-(5-cyclopropyl-6-fluoropyridin-2-yl)(phenyl)methyl]-1-{2-[3-(difluoromethyl)-1H-pyrazol-1-yl]acetyl}-4-fluoropyrrolidine-2-carboxamide] | 710 | > 100000 | 39 |
